The test system of series [1] is Leptosphaeria nodorum (LEPTNO). Nature of the series: In vitro fungitoxicity of hydrazones with and without copper towards Leptosphaeria nodorum (Example 26). Type of series: cell-based. To be noted: test compound Concn. 0.05 μg/mL, 72 h at 25° C.; for inhibition of growth at 0.05 µg/mL: Parastagonospora nodorum, 72 h, copper-minus medium, read-out: LEPTNO % Inhn. Minus Copper Observed; for LEPTNO % Inhn. Plus Copper Observed: copper-plus medium (CuCl2 10 μM).

The subject of the next series is Phytophthora infestans. Type of series: in vivo, Phytophthora infestans on tomato. The settings on record: hydrazone 50 ppm with 50 μM CuCl2.2H2O, applied 24 h before inoculation; assessed 7 days after inoculation; tomato late blight.

SMILES strings stand for the structures.

Take `C/C(=N\NC(=O)c1cccc(C)c1)c1cc(Cl)ccc1O` [Example 506]: the melting point lay within 222 to 228 °C. Besides, in series [1], the inhibition of growth at 0.05 µg/mL worked out at 2.7% and the “LEPTNO % Inhn. Plus Copper Observed” value was found to be 97.5%. Moreover, in the series on Phytophthora infestans, the “TLB % Control” value was found to be 44.0%.
In turn, `C/C(=N\NC(=O)c1ccc(C)cc1)c1cc(Cl)ccc1O` [Example 507] came in with a melting point of 221 to 228 °C. In series [1], the inhibition of growth at 0.05 µg/mL amounted to 7.6% and the “LEPTNO % Inhn. Plus Copper Observed” value is recorded as 97.0%. In addition, the “TLB % Control” value in the series on Phytophthora infestans came out at 66.0%.
The corresponding values for `C/C(=N\NC(=O)c1ccccc1Cl)c1cc(Cl)ccc1O` [Example 508] are 210 to 217 °C, 9.4%, 97.1% and 92.0%.
The corresponding values for `C/C(=N\NC(=O)c1cccc(Cl)c1)c1cc(Cl)ccc1O` [Example 509] are 244 to 249 °C, 0%, 96.2% and 85.0%.
For `C/C(=N\NC(=O)c1ccc(Cl)cc1)c1cc(Cl)ccc1O` [Example 510], in that order: 248 to 252 °C, 6.2%, 95.5% and 56.0%.
`COc1ccc(C(=O)N/N=C(\C)c2cc(Cl)ccc2O)cc1` [Example 511] displayed a melting point of 203 to 228 °C. In addition, in series [1], the inhibition of growth at 0.05 µg/mL is 0% and the “LEPTNO % Inhn. Plus Copper Observed” value came to 97.8%. Moreover, the “TLB % Control” value with Phytophthora infestans is reported as 73.0%.
The corresponding values for `C/C(=N\NC(=O)c1ccc(Br)cc1)c1cc(Cl)ccc1O` [Example 512] are 269 to 271 °C, 7.4%, 97.8% and 59.0%.
The corresponding values for `C/C(=N\NC(=O)c1ccc(C(F)(F)F)cc1)c1cc(Cl)ccc1O` [Example 513] are 271 to 273 °C, 14%, 98.0% and 53.0%.
For the compound `C/C(=N\NC(=O)c1ccccc1Br)c1cc(Cl)ccc1O` [Example 514], the melting point fell in the range of 222 to 225 °C. Also, in series [1], the inhibition of growth at 0.05 µg/mL worked out at 0% and the “LEPTNO % Inhn. Plus Copper Observed” value is on record as 97.7%. The “TLB % Control” value with Phytophthora infestans amounted to 75.0%.
The corresponding values for `C/C(=N\NC(=O)c1ccccc1O)c1cc(Cl)ccc1O` [Example 515] are 298 to 318 °C, 0%, 97.6% and 47.0%.
For `COc1ccc(C(=O)N/N=C(\C)c2cc(Br)ccc2O)cc1` [Example 516], in that order: 202 to 252 °C, 0%, 97.9% and 59.0%.
Regarding `C/C(=N\NC(=O)c1ccc(Br)cc1)c1cc(Br)ccc1O` [Example 517], the melting point was 270 to 275 °C. Further, in series [1], the inhibition of growth at 0.05 µg/mL was found to be 0% and the “LEPTNO % Inhn. Plus Copper Observed” value is 96.7%. For the same compound, the “TLB % Control” value with Phytophthora infestans amounted to 56.0%.
The corresponding values for `C/C(=N\NC(=O)c1ccc(C(F)(F)F)cc1)c1cc(Br)ccc1O` [Example 518] are 272 to 280 °C, 24.2%, 97.4% and 58.0%.
The corresponding values for `C/C(=N\NC(=O)c1ccccc1Br)c1cc(Br)ccc1O` [Example 519] are 216 to 218 °C, 9.1%, 95.7% and 88.0%.
The corresponding values for `C/C(=N\NC(=O)c1ccccc1O)c1cc(Br)ccc1O` [Example 520] are 281 to 303 °C, 14.9%, 96.7% and 49.0%.
Take `COc1ccc(C(=O)N/N=C(\C)c2cccc([N+](=O)[O-])c2O)cc1` [Example 521]: the melting point was in the range of 204 to 212 °C. Further, in series [1], the inhibition of growth at 0.05 µg/mL is 5% and the “LEPTNO % Inhn. Plus Copper Observed” value was found to be 95.9%. For the same compound, the “TLB % Control” value in the series with Phytophthora infestans turned out to be 83.0%.
For `C/C(=N\NC(=O)c1ccc(Br)cc1)c1cccc([N+](=O)[O-])c1O` [Example 522], the melting point was in the range of 244 to 252 °C. For the same compound, in series [1], the inhibition of growth at 0.05 µg/mL was found to be 9.4% and the “LEPTNO % Inhn. Plus Copper Observed” value is given as 97.3%. The “TLB % Control” value with Phytophthora infestans is 95.0%.
`C/C(=N\NC(=O)c1ccc(C(F)(F)F)cc1)c1cccc([N+](=O)[O-])c1O` [Example 523]: the melting point was 267 to 278 °C. Moreover, in series [1], the inhibition of growth at 0.05 µg/mL is 7% and the “LEPTNO % Inhn. Plus Copper Observed” value is given as 97.7%. In the series on Phytophthora infestans, the “TLB % Control” value worked out at 92.0%.
The corresponding values for `C/C(=N\NC(=O)c1ccccc1Br)c1cccc([N+](=O)[O-])c1O` [Example 524] are 186 to 188 °C, 9.3%, 95.8% and 39.0%.
The corresponding values for `C/C(=N\NC(=O)c1ccccc1O)c1cccc([N+](=O)[O-])c1O` [Example 525] are 274 to 283 °C, 5.4%, 97.4% and 78.0%.
For `C/C(=N\NC(=O)c1ccccc1)c1cc(C(F)(F)F)ccc1O` [Example 527], in that order: 226 to 229 °C, 7.6%, 97.6% and 78.0%.
For the compound `C/C(=N\NC(=O)c1ccccc1C)c1cc(C(F)(F)F)ccc1O` [Example 528], the melting point fell in the range of 200 to 203 °C. Further, in series [1], the inhibition of growth at 0.05 µg/mL came out at 8.7% and the “LEPTNO % Inhn. Plus Copper Observed” value was 97.7%. The “TLB % Control” value in the series with Phytophthora infestans is recorded as 73.0%.
For `C/C(=N\NC(=O)c1cccc(C)c1)c1cc(C(F)(F)F)ccc1O` [Example 529], in that order: 235 to 238 °C, 15.3%, 97.7% and 46.0%.
For `C/C(=N\NC(=O)c1ccc(C)cc1)c1cc(C(F)(F)F)ccc1O` [Example 530], in that order: 225 to 229 °C, 9.8%, 96.2% and 59.0%.
For `C/C(=N\NC(=O)c1ccccc1Cl)c1cc(C(F)(F)F)ccc1O` [Example 531], in that order: 189 to 191 °C, 0%, 97.3% and 80.0%.

These data come from patent US20120010075A1 (priority 2009, published 2012).
